In patent US20230048888A1, “USE OF TRIAZOLOTRIAZINE DERIVATIVE IN TREATMENT OF DISEASES” (ZHEJIANG VIMGREEN PHARMACEUTICALS, LTD., priority 2019, published 2023):

Columns and labels:
[1] = biological target: T1, adenosine receptor A2b (Homo sapiens, UniProt P29275); assay: cAMP experiment on Gs-coupled adenosine receptor A2b (HEK293); assay type: cell-based; conditions: cAMP accumulation, NECA EC80; read-out: IC50 (nM) HEK293 cells (ADORA2B)
T1 construct: host or cells: HEK293
T1 sequence (P29275 1-332): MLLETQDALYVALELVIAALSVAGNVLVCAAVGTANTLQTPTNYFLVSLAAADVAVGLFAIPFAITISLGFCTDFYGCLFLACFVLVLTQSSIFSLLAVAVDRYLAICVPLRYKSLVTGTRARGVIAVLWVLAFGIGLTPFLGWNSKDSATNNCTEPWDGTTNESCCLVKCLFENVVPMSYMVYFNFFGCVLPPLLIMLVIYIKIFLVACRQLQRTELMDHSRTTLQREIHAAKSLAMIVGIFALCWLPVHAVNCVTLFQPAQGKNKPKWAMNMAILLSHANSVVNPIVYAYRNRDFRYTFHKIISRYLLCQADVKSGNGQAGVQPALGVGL
Protocol: In this experiment, a HEK293 cell line stably expressing the adenosine receptor A2b was taken as a study object (PerkinElmer, ES-013-C) for the experiment. […] A solution system for cell inoculation was 10 μL of cAMP experimental buffer. […] Similarly, 10 mM test compound was also subjected to 3-fold gradient dilution in 100% DMSO. The gradient-diluted reference compound and test compound were added to a 384-well compound plate (Labcyte, PP-0200). 10 nL of the gradient-diluted reference agonist NECA per well was transferred to a test plate containing cells by using Echo (Labcyte, 550), and the test plate was incubated for 30 minutes at 37° C. 5 μL of Eu-cAMP tracer working solution and 5 μL of ULight-anti-cAMP working solution (PerkinElmer, TRF0263) were added to the test plate per well, and the test plate was incubated for 30 minutes at 25° C. […] 1000×EC80 NECA was prepared with 100% DMSO. […] The test plate was incubated for 20 minutes at 25° C., and then 10 nL of the 1000×EC80 NECA per well was transferred to the test plate. The test plate was incubated for 30 minutes at 37° C. 5 μL of Eu-cAMP tracer working solution and 5 μL of ULight-anti-cAMP working solution were added to the test plate per well, and the test plate was incubated for 30 minutes at 25° C. The fluorescence signal ratio of each well in the test plate was read, and the IC50 value of the compound was calculated by using the output data of the reference inhibitor and test compound and the concentration of the compound.

[2] = biological target: T2, adenosine receptor A3 (Homo sapiens, UniProt P0DMS8); assay: cAMP experiment on Gi-coupled adenosine receptor A3 (CHO); assay type: cell-based; conditions: cAMP accumulation; read-out: IC50 (nM) CHO cells (ADORA3)
T2 construct: host or cells: CHO
T2 sequence (P0DMS8 1-318): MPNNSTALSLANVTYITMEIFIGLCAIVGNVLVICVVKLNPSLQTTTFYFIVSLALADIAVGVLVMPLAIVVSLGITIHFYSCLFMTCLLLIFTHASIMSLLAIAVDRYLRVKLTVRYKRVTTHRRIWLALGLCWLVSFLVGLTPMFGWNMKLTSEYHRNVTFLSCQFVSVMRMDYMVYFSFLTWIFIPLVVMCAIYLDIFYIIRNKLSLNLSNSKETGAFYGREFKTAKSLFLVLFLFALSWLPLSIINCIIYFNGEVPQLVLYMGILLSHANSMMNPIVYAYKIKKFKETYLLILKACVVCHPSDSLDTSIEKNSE
Protocol: Similarly, a CHO cell strain stably expressing the adenosine receptor A3 was taken as a study object (PerkinElmer, ES-012-C) for the experiment. The IC50 value of the compound was calculated.

[3] = Pharmacokinetics of Compounds 27, 40, 22 and 41 in ICR mice in different modes of administration; assay type: in vivo; conditions: for Drug accumulation after consecutive oral administration: 30 mg/kg oral; for AUC(0-t) / Cmax / half-life: ICR; for AUC(0-t) / Cmax / half-life / clearance: mouse, in vivo; for clearance: IV, read-out: Cl—pred (converted)
Text: WinNonlin® 6.4 was used as the calculation software for PK parameters.

[4] = Pharmacokinetics of Compounds 22, 27 and 40 in SD rats after oral administration for 7 consecutive days; assay type: in vivo; conditions: for Accumulation after consecutive administration: SD rats; for AUC / AUC(0-t) / Cmax / Tmax: rat, plasma; for AUC / Cavg / Cmin / AUC(0-t) / Cmax / Tmax: male SD rats; for AUC(0-t) / Cmax / Tmax: male, po, 30 mg/kg; for Tmax: median
Protocol: 12 male SD rats (about 7-9 weeks old on the day of administration, 283.0-298.1 g) were purchased from SPF (Beijing) Biotechnology Co., Ltd. They were randomly divided into 3 groups, with 4 rats in each group, and received orally administration once daily for 7 consecutive days. Compound 27 was administrated to Group 1 at 30 mg/kg, Compound 22 was administrated to Group 2 at 30 mg/kg, and Compound 40 was administrated to Group 3 at 30 mg/kg. All animals had free access to water and diet during dosing.
0.3366 g of Compound 27, 0.3333 g of Compound 22 and 0.3366 g of Compound 40 were weighed out respectively, and dissolved in 44 mL of PEG400 with stirring and ultrasonication; 50 mL of PBS was added to the resulting mixture, stirred and sonicated for complete dissolution; PBS was added to fix the volume to the final volume of 110 mL, thereby obtaining the target formulation solution with the final concentration of 3.0 mg/mL. The prepared formulation solution was divided into 7 portions, each of 15 mL, and stored in a refrigerator at 4° C. Before administration, the formulation was held at room temperature, until its temperature returned to room temperature; the formulation was stirred at room temperature for at least 10 minutes; and the stirring continued during the administration. The entire process for preparing the formulation was operated under yellow light, and during transferring, the prepared formulation was wrapped with tin foil to protect it from light.
The concentrations of Compounds 27, 22 and 40 in the plasma of SD rats were determined by liquid chromatography-mass spectrometry, with […] as the internal standard compound. With the mass spectrometer scanning in the electrospray ion source positive ion mode, the mass-to-charge ratios of parent ions to daughter ions in Compounds 27, 40 and 22 and tolbutamide were 395.2→178.2, 404.2→158.9, 393.4→146.2 and 455.2→165.0, respectively.
The pharmacokinetic parameters of Compounds 27, 40 and 22 were calculated by the software Phoenix™ WinNonlin Version 6.1 using the non-compartmental model. Pharmacokinetic data was calculated using the linear logarithmic trapezoidal method, with a weight of 1/Y*Y. Samples with the sample concentration below the lower limit of quantification were excluded from the calculation of pharmacokinetic parameters. […] The mean time to peak (Tmax) was represented as a median.

[5] = po, 30 mg/kg, PO (after 7 consecutive days of administration), 30 mg/kg
[6] = PO (after 7 consecutive days of administration), 30 mg/kg
[7] = oral 30 mg/kg once a day for 7 consecutive days
[8] = Sprague-Dawley, oral 30 mg/kg once a day for 7 consecutive days, Day 7, mean
[9] = oral 30 mg/kg once a day for 7 consecutive days, Day 7, mean
[10] = Sprague-Dawley (SD), oral 30 mg/kg once a day, Day 1, read-out: drug exposure AUC0-t
[11] = Sprague-Dawley (SD), oral 30 mg/kg once a day, Day 1, read-out: maximum plasma concentration Cmax
[12] = Sprague-Dawley (SD), oral 30 mg/kg once a day, seventh day, read-out: drug exposure AUC0-t
[13] = Sprague-Dawley (SD), oral 30 mg/kg once a day, seventh day, read-out: maximum plasma concentration Cmax
[14] = Sprague-Dawley, oral 30 mg/kg once a day for 7 consecutive days, Day 7, mean, read-out: AUC0-t
[15] = Sprague-Dawley, oral 30 mg/kg once a day for 7 consecutive days, Day 7, mean, read-out: Cmax
[16] = Sprague-Dawley, oral 30 mg/kg once a day for 7 consecutive days, Day 7
[17] = Sprague-Dawley, oral 30 mg/kg once a day, Day 1, mean, read-out: AUC0-t
[18] = Sprague-Dawley, oral 30 mg/kg once a day, Day 1, mean, read-out: Cmax
[19] = Sprague-Dawley, oral 30 mg/kg once a day, Day 1

Row | SMILES | IC50 [1] [nM] | IC50 [2] [nM] | Drug accumulation after consecutive oral administration [3] | AUC(0-t) ([3]; iv, 1 mg/kg) [ng·h/mL] | Cmax ([3]; iv, 1 mg/kg) [ng/mL] | half-life ([3]; iv, 1 mg/kg) [h] | AUC(0-t) ([3]; po, 5 mg/kg) [ng·h/mL] | Cmax ([3]; po, 5 mg/kg) [ng/mL] | half-life ([3]; po, 5 mg/kg) [h] | AUC(0-t) [3, 5] [ng·h/mL] | Cmax [3, 5] [ng/mL] | half-life [3, 5] [h] | AUC(0-t) ([3]; po, 30 mg/kg, PO (single)) [ng·h/mL] | Cmax ([3]; po, 30 mg/kg, PO (single)) [ng/mL] | half-life ([3]; po, 30 mg/kg, PO (single)) [h] | Cl—F—pred [3, 6] [mL/min/kg] | Cl—F—pred ([3]; PO (single), 30 mg/kg) [mL/min/kg] | Cl—F—pred ([3]; PO, 5 mg/kg) [mL/min/kg] | F ([3]; PO, 5 mg/kg) [%] | clearance ([3]; 1 mg/kg) [mL/min/kg] | further results
1 | COCCNc1ccc(CCNc2nc(N)n3nc(-c4ccco4)nc3n2)cc1 [Compound 27, 2-(furan-2-yl)-N5-(4-((2-methoxyethyl)amino)phenethyl)-[1,2,4]triazolo[1,5-a][1,3,5]triazine-5,7-diamine] | 307 | 458 | significant drug accumulation is not observed | 495 | 993 | 0.67 | 3100 | 1550 | 1.19 | 41700 | 17300 | 1.86 | 33600 | 14500 | 1.12 | 12 | 15.3 | 27.5 | 125.29 | 33.8 | Accumulation after consecutive administration [4, 7]: do not show significant accumulation; AUC [4, 8]: 22200 ng·h/mL; Cavg [4, 9]: 925 ng/mL; Cmin [4, 9]: 9.23 ng/mL; AUC(0-t) [4, 10]: 29600 ng·h/mL; Cmax [4, 11]: 7100 ng/mL; AUC(0-t) [4, 12]: 22200 ng·h/mL; Cmax [4, 13]: 4620 ng/mL; AUC(0-t) [4, 14]: 22200 ng·h/mL; Cmax [4, 15]: 4620 ng/mL; Tmax [4, 16]: 1.5 h; AUC(0-t) [4, 17]: 29600 ng·h/mL; Cmax [4, 18]: 7100 ng/mL; Tmax [4, 19]: 2 h
2 | Nc1nc(NCCc2ccc(NC3COC3)cc2)nc2nc(-c3ccco3)nn12 [Compound 22, 2-(furan-2-yl)-N5-(4-(oxetan-3-ylamino)phenethyl)-[1,2,4]triazolo[1,5-a][1,3,5]triazine-5,7-diamine] | 380 | 585 | significant drug accumulation is not observed | 925 | 1690 | 0.94 | 3960 | 3510 | 2.74 | 15400 | 4800 | 3.04 | 18000 | 9650 | 2.22 | 32.5 | 27.8 | 21 | 85.72 | 18.2 | Accumulation after consecutive administration [4, 7]: do not show significant accumulation; AUC [4, 8]: 6950 ng·h/mL; Cavg [4, 9]: 290 ng/mL; Cmin [4, 9]: 11.4 ng/mL; AUC(0-t) [4, 10]: 6630 ng·h/mL; Cmax [4, 11]: 1020 ng/mL; AUC(0-t) [4, 12]: 6950 ng·h/mL; Cmax [4, 13]: 947 ng/mL; AUC(0-t) [4, 14]: 6950 ng·h/mL; Cmax [4, 15]: 947 ng/mL; Tmax [4, 16]: 1.5 h; AUC(0-t) [4, 17]: 6630 ng·h/mL; Cmax [4, 18]: 1020 ng/mL; Tmax [4, 19]: 4 h
3 | CCn1c(=O)c2c(nc(/C=C/c3ccc(OC)c(OC)c3)n2C)n(CC)c1=O [Istradefylline, reference compound] |  | 2080 |  |  |  |  |  |  |  |  |  |  |  |  |  |  |  |  |  |  | 
4 | Cn1nnc(-c2ccc(CCNc3nc(N)n4nc(-c5ccco5)nc4n3)cc2)n1 [Compound 40, N5-(4-(2-methyl-2H-tetrazol-5-yl)phenethyl)-2-(furan-2-yl)-[1,2,4]triazolo[1,5-a][1,3,5]triazine-5,7-diamine] | 343 | 928 | significant drug accumulation is not observed | 1540 | 1880 | 2.49 | 5540 | 2130 | 2.36 | 10600 | 2330 | 2.79 | 24400 | 14400 | 1.65 | 47 | 20.5 | 15 | 71.99 | 10.8 | Accumulation after consecutive administration [4, 7]: do not show significant accumulation; AUC [4, 8]: 6580 ng·h/mL; Cavg [4, 9]: 274 ng/mL; Cmin [4, 9]: 52.3 ng/mL; AUC(0-t) [4, 10]: 5150 ng·h/mL; Cmax [4, 11]: 503 ng/mL; AUC(0-t) [4, 12]: 6580 ng·h/mL; Cmax [4, 13]: 581 ng/mL; AUC(0-t) [4, 14]: 6580 ng·h/mL; Cmax [4, 15]: 581 ng/mL; Tmax [4, 16]: 4 h; AUC(0-t) [4, 17]: 5150 ng·h/mL; Cmax [4, 18]: 503 ng/mL; Tmax [4, 19]: 3 h
